Reference: ChEMBL document CHEMBL1201862, “PubChem BioAssay data set” (2004)
Values belong to the compound of their own block, whether it stands above or below them. Activity calls are given as the source filed them.

Key:
[1] = biological target: fMet-Leu-Phe receptor (Homo sapiens, UniProt P21462); experiment: formyl peptide receptor binders – dose response (AID 519); assay type: functional
[2] = biological target: Cytochrome P450 3A4 (Homo sapiens, UniProt P08684);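 also: CYP3A4 tested as one member of a cytochrome P450 panel screen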
[3] = system: Jurkat; experiment: blockers of NF-kB activation in T cells – Jurkat, luciferase reporter, luminescence, B- and T-cell, dose response (AID 489004); assay type: functional, cell-based; conditions: Homo sapiens;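 also: NF-kB luciferase reporter Jurkat cells stimulated with PMA plus ionomycin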
[4] = HEK-293T viability loss, compound-treated – cell-based, uHTS hits, cytotoxicity control for B/T-cell NF-kB inhibitor project, dose response (AID 489019); assay type: functional;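 also: IC50 reflects cytotoxicity as loss of cell viability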
[5] = biological target: T1, Microphthalmia-associated transcription factor (Homo sapiens, UniProt O75030); experiment: reducers of TRPM1 reporter luminescence, concentration series – cell-based, SK-MEL-5, cherry-picked, set 3, MITF inhibitor project, dose response (AID 493073); assay type: functional;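 also: SK-MEL-5 melanoma cells with luciferase driven by the MITF target TRPM1 promoter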
T1 sequence (O75030 whole entry): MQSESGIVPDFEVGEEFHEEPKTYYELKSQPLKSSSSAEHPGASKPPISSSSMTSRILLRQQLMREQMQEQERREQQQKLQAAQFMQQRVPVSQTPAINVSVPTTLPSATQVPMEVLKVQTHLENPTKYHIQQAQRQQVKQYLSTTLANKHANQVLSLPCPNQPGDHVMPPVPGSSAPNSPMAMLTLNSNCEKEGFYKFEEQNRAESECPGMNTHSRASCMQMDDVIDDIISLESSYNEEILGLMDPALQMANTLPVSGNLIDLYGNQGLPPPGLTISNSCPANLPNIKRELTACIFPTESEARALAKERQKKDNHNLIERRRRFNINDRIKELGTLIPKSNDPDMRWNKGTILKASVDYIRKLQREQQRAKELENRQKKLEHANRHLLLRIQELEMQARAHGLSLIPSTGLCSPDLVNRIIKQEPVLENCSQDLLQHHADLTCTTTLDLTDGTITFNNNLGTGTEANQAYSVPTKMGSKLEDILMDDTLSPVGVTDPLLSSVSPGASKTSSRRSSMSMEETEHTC

[6] = biological target: Melanocortin receptor 4 (Homo sapiens, UniProt P32245); experiment: inhibitors of MC4R cAMP signaling – cell-based, TR-FRET, biased antagonists, dose response (AID 602298); assay type: functional;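 also: antagonist potency against agonist-stimulated cAMP production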
[7] = reduction of Shn3 3'UTR-driven luciferase in osteoblasts – cell-based, Clone20 osteoblasts, firefly luciferase, cherry-picked, dose response (AID 624132); assay type: functional;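 also: firefly luciferase luminescence from reporter carrying the Shn3 3'UTR in osteoblasts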
[8] = loss of viability in HepG2 cells – cell-based, CellTiter-Glo, cherry-picked, cytotoxicity control for Shn3 inhibitor project, dose response (AID 624134); assay type: functional
[9] = non-specific 3'UTR reporter inhibition in Clone20-Shn3RL – cell-based, Renilla luciferase, cherry-picked, counter-screen for Shn3 inhibitor project, dose response (AID 624133); assay type: functional
[10] = cAMP pathway inhibition in counterscreen cell line – TR-FRET cAMP detection, counter-screen for MC4R biased antagonist project, dose response (AID 602305); assay type: functional, cell-based;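 also: U2OS cells stimulated with forskolin near its EC80 as the cAMP inducer; potency is for inhibition of forskolin-stimulated cAMP signaling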
[11] = blockers of HIV-1 envelope-mediated cell-cell fusion – cherry-pick, dose response (AID 652057); assay type: functional, cell-based
[12] = viability loss in CEM21 cells – cell-based, CellTiter-Glo luminescence, cherry-picked, cytotoxicity control for viral fusion inhibitor project, dose response (AID 652042); assay type: functional;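 also: potency for signal decrease meaning cytotoxicity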
[13] = blockers of HIV-1 ZM109 envelope-driven cell-cell fusion – HeLa effector, CEM target cells, luciferase, cherry-pick, dose response (AID 652058); assay type: functional, cell-based;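 also: luciferase signal from HIV-1 Env mediated cell-cell fusion of effector and target cells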
[14] = biological target: Paired box protein Pax-8 (Homo sapiens, UniProt Q06710); experiment: PAX8 transcriptional activity inhibition in RMG-I – RMG-I cells, luciferase, cherry-pick, dose response (AID 687027); assay type: functional, cell-based;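 also: luciferase reporter driven by Pax8 target thyroperoxidase promoter measured by SteadyGlo luminescence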
[15] = off-target signal loss in HeLa-CEM21 co-culture – HeLa F-luc CTL cells, cherry-picked, counter-screen for HIV-1 Env fusion inhibitor project, dose response (AID 652040); assay type: functional, cell-based;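 also: potency for signal decrease marking cytotoxic or nonspecific inhibition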
[16] = HIV-1 AD8 envelope cell-cell fusion blockers – cherry-pick, dose response (AID 652062); assay type: functional, cell-based;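 also: luciferase signal from cell-cell fusion driven by HIV-1 clade B AD8 Env; potency is for inhibitors of fusion seen as a drop in luminescence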
[17] = reduced cellular PGC1a acetyl-lysine signal – cell-based, cherry-picked samples, dose response (AID 720514); assay type: functional;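 also: potency may reflect raised or lowered acetylation signal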
[18] = A549 cell cytotoxicity, dose response, cytotoxicity control, plate reader, cherry-pick, antagonist series (AID 743412); assay type: functional, cell-based
[19] = toxicity toward HepG2 liver cells – cell-based, plate reader, cherry-pick, antagonist series, cytotoxicity control, dose response (AID 743416); assay type: functional
[20] = blockers of bursicon-stimulated LGR2 cAMP reporter – cell-based, HEK293, CRE-luciferase reporter, cherry pick, set 2, dose response (AID 743343); assay type: functional;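 also: transfected cells were stimulated with diluted bursicon conditioned medium after compound addition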
[21] = general cell-killing toxicity readout – plate reader, dry powder samples, cytotoxicity control for PAX8 inhibitor project, dose response (AID 743021); assay type: functional, cell-based
[22] = blockade of melanocortin 4 receptor signaling – cell-based, plate reader, cherry pick, counter-screen for LGR2 antagonist project, dose response (AID 743444); assay type: functional;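 also: transfected HEK 293 cells stimulated with alpha-MSH peptide; potency of inhibitors of the alpha-MSH evoked signal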
[23] = viability loss in HEK293 cells – cell-based, plate reader, cherry-picked samples, cytotoxicity control, dose response (AID 743446); assay type: functional
[24] = NIH-3T3 fibroblast cytotoxicity, dose response, cytotoxicity control, cell-based, fluorescence, Alamar Blue, secondary assay (AID 2327); assay type: functional;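 also: NIH-3T3 mouse fibroblasts cultured with fluconazole at 8 µg/mL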
[25] = fluconazole-exposed Candida albicans growth modulators – fluorescence, retest, confirmation (AID 2467); assay type: functional, cell-based
[26] = HEK-293T viability loss after treatment – luminescence, T-cell screen hits, cytotoxicity control for TCR NF-kB inhibitor project, dose response (AID 489026); assay type: functional, cell-based;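 also: cells exposed to compound about 14 hours before the viability readout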
[27] = biological target: Heat shock protein HSP 90-alpha (Homo sapiens, UniProt P07900); assay type: functional, organism-based
[28] = biological target: Galanin receptor type 3 (Homo sapiens, UniProt O60755); experiment: Fluorescence-based cell-based primary high throughput dose response assay to identify antagonists of the Galanin Receptor 3 (GalR3).; assay type: functional
[29] = cells; assay type: functional, cell-based; conditions: HEK-CNG
[30] = Shn3 3'UTR reporter signal decrease – cell-based, Clone20 osteoblasts, firefly luciferase, cherry-pick, set 2, Schnurri-3 inhibitor project, dose response (AID 720490); assay type: functional;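 also: actives lower the luminescence signal as inhibitors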
[31] = biological target: Caspase-6 (Homo sapiens, UniProt P55212); experiment: inhibition of CASP6 peptide cleavage – biochemical, VEID-R110 fluorescence, cherry-pick, dose response (AID 720632)
[32] = biological target: T2, High affinity choline transporter 1 (Homo sapiens, UniProt Q9GZV3); experiment: human choline transporter blockers, potency – cell-based, 5-point CRC, membrane potential dye, dose response (AID 504840); assay type: functional
T2 sequence (Q9GZV3 whole entry): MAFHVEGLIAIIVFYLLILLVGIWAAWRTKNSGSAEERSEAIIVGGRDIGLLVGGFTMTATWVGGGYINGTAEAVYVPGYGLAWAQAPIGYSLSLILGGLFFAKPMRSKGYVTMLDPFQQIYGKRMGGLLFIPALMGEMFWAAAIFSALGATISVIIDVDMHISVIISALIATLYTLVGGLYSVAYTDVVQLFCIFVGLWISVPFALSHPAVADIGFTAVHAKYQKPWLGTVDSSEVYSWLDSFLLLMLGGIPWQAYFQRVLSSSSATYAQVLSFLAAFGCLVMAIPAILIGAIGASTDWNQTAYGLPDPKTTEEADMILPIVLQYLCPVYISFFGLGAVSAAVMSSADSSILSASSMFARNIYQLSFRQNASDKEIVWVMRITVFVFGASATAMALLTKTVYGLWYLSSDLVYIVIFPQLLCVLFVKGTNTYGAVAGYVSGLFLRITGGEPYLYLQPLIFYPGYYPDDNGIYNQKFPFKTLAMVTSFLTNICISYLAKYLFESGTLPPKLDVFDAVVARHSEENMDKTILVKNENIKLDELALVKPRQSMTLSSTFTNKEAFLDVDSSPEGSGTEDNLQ

[33] = biological target: T3, Histone-lysine N-methyltransferase NSD2 (Homo sapiens, UniProt O96028); assay type: biochemical
T3 sequence (O96028 whole entry): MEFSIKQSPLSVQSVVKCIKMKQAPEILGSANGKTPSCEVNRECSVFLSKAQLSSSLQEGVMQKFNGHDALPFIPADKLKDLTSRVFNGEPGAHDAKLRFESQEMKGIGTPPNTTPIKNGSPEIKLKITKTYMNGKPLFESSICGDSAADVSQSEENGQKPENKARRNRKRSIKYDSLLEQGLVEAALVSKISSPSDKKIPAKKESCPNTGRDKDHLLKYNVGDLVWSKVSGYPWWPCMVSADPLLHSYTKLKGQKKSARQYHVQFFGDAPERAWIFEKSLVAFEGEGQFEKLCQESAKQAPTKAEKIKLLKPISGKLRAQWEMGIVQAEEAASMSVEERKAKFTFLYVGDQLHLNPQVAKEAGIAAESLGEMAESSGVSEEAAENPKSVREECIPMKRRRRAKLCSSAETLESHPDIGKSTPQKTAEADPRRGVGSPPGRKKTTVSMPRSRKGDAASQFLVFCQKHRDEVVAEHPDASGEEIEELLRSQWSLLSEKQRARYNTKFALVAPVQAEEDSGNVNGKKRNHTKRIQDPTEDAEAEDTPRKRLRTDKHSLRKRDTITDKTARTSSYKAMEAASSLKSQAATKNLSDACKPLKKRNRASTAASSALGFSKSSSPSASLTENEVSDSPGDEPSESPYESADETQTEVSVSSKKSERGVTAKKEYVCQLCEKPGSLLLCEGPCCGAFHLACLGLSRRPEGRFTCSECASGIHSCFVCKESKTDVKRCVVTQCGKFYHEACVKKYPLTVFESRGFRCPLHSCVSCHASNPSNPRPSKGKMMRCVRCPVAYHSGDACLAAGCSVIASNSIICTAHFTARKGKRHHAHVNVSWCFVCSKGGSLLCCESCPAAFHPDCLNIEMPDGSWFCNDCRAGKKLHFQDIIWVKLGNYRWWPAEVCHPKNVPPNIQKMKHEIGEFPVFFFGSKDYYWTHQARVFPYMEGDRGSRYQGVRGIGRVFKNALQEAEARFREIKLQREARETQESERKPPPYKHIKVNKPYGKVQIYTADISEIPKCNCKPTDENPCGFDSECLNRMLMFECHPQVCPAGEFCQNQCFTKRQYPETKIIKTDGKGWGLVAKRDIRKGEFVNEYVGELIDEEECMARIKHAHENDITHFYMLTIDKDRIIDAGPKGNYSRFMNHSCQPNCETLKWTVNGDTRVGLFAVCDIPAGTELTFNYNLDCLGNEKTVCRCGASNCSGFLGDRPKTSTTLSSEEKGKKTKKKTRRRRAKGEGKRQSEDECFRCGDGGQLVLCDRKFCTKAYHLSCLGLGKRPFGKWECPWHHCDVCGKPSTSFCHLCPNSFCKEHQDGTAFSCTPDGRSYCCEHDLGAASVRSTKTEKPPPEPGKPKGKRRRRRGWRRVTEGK

Caspase-6, sequence (P55212 24-179 limits assumed): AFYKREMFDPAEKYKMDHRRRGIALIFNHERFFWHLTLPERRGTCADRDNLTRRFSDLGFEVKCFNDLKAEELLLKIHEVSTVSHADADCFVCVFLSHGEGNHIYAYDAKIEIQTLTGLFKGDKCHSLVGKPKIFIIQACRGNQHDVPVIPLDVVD
Caspase-6, sequence (P55212 194-293 limits assumed): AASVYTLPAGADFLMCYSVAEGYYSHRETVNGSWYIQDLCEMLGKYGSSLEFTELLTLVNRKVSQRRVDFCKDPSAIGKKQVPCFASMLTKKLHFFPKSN
Paired box protein Pax-8, sequence (Q06710 whole entry, the tested form may be a part): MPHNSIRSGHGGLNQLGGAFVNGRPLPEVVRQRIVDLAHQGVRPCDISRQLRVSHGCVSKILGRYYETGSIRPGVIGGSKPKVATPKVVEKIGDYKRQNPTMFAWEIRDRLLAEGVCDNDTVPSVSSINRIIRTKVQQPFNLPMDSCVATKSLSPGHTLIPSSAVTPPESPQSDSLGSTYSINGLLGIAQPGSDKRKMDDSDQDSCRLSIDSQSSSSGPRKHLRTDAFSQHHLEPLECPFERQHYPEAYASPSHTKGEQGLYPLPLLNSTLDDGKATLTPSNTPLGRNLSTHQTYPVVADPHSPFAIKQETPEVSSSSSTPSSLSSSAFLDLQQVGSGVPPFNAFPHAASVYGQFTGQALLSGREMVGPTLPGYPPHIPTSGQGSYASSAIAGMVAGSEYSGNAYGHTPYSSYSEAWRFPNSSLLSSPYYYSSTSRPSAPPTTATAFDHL
Galanin receptor type 3, sequence (O60755 whole entry): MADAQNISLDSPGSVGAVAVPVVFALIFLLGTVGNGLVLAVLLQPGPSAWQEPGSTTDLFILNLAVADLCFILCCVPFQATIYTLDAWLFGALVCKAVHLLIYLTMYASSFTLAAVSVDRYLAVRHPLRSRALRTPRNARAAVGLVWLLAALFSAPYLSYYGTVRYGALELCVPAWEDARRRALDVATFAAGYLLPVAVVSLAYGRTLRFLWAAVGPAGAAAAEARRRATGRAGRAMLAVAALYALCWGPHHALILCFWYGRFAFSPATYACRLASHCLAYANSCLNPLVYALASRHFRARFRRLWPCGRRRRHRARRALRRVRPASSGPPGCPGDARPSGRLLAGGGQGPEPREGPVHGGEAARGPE
fMet-Leu-Phe receptor, sequence (P21462 whole entry): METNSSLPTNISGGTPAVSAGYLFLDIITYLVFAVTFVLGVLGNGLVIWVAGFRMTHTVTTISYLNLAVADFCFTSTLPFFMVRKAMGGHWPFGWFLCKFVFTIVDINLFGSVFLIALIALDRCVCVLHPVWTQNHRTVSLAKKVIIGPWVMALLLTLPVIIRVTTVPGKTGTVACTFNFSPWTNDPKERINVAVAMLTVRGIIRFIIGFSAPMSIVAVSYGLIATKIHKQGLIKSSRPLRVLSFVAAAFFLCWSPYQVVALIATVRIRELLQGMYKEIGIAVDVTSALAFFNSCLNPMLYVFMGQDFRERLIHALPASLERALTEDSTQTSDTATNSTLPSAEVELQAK
Cytochrome P450 3A4, sequence (P08684 whole entry): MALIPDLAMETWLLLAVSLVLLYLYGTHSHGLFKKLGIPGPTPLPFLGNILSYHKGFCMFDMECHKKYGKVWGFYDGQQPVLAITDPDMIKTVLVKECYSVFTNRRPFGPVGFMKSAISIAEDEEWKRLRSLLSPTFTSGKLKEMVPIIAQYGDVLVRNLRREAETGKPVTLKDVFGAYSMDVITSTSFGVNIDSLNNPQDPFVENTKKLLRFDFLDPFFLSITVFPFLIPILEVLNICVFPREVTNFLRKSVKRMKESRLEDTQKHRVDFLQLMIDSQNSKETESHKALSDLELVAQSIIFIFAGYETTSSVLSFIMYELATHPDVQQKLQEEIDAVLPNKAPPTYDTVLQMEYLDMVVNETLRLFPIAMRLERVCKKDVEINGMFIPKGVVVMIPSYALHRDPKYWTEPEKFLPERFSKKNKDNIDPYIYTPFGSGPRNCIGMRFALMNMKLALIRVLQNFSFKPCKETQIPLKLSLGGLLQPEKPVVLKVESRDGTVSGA
Melanocortin receptor 4, sequence (P32245 whole entry): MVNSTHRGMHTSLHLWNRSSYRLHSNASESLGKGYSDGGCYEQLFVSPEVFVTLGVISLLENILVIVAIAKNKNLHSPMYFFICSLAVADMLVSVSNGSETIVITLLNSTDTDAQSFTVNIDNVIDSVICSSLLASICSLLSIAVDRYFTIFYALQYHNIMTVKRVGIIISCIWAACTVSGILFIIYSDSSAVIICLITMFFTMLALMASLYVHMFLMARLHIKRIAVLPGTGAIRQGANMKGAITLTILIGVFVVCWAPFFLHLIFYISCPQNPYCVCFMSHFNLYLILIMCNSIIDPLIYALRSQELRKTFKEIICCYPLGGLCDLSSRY

Ki [1]: > 66.7 µM (inactive)
AC50 [2]: 25.1 µM (inconclusive)
Structure (SMILES): COc1ccc(-c2cc(C(F)(F)F)nc(N3CCCCC3)n2)cc1OC

Structure (SMILES): C#CC(=O)N(c1ccc(OC)cc1OC)C(C(=O)NC1CCCC1)c1cccs1 (configuration not stated)
IC50 [3]: 0.32 µM (active)
IC50 [4]: 37.3 µM (inactive)
AC50 [5]: 4.73 µM (active)
IC50 [6]: > 64.6 µM (inactive)
AC50 [7]: 7.12 µM (active)
AC50 [8]: 4.23 µM (active)
AC50 [9]: 1.11 µM (active)
IC50 [10]: > 64.6 µM (inactive)
AC50 [11]: 14.8 µM (active)
AC50 [12]: 0.631 µM (active)
AC50 [13]: 14.4 µM (active)
AC50 [14]: < 0.26 µM (active)
AC50 [15]: 4.53 µM (active)
AC50 [16]: 9.92 µM (active)
AC50 [17]: 3.91 µM (active)
AC50 [18]: 13.4 µM (active)
AC50 [19]: 0.839 µM (active)
AC50 [20]: 8.43 µM (active)
AC50 [21]: 0.678 µM (active)
AC50 [22]: 6.64 µM (active)
AC50 [23]: 1.87 µM (active)

Structure (SMILES): CC(C)CCOc1cccc(OCC(=O)Nc2ccncc2)c1
EC50 [24]: > 160 µM (inactive)
EC50 [25]: 3.63 µM (active)
IC50 [26]: > 80 µM (inactive)
AC50 [27]: 2.62 µM (active)
AC50 [7]: 0.571 µM (active)
AC50 [8]: 48.5 µM (active)
AC50 [9]: 2.72 µM (active)
IC50 [28]: 1.06 µM (active)
EC50 [29]: > 29.9 µM (inactive)
AC50 [30]: 1.07 µM (active)

AC50 [31]: 43.7 µM (active)
Structure (SMILES): CC(C)C(=O)C1=Cc2cccc([N+](=O)[O-])c2OC1N1CCOCC1 (configuration not stated)

Structure (SMILES): O=C1N/C(=N\c2ccccc2Cl)S/C1=C\c1cccc([N+](=O)[O-])c1O
IC50 [32]: 12.6 µM (active)
AC50 [31]: 11 µM (active)
AC50 [33]: 19.2 µM (active)
